Experimental data reported in patent US5736548A, “6-aryl pyrazolo[3,4-D] pyrimidin-4-ones and compositions and method of use thereof” (Sanofi, priority 1997, dated 1998).
Values joined by “and” are separate entries in the source; they are usually repeats but may differ in a detail not shown here. Equal values may be shown once. Where a name gives a salt, the structure may show the parent alone.

How the values were obtained:
[1] = target: cGMP-PDE V (Homo sapiens, UniProt O76074); assay: biochemical; design: species or system various animal species and man; details: for IC50: values separated by / and marked * are separate experimental runs
Method: The cGMP-PDE and other PDE isozymes were isolated from cardiovascular tissues (heart and aorta) of various animal species and man by anion-exchange and affinity chromatography as described by Silver et al., Sec. Messeng. Phos. 13:13-25, 1991; PDE activity, in the presence and absence of test compounds was determined essentially as described by Thompson et al., Adv. Cyclic Nucleotide Res. 10:69-92. To determine the potency and selectivity of compounds as PDE inhibitors, compounds are screened for their effect on cyclic nucleotide hydrolysis at 10 μM. […] The IC50 values are calculated from concentration-response curves as described by Tallarida and Murray, Manual of Pharmacologic Calculations with Computer Programs, Procedure 8, Graded Dose-response, pp. 14-19, Springer-Verlag, New York, 1981.

[2] = test system: Spontaneously hypertensive rats (SHR); assay: Antihypertensive activity in conscious spontaneously hypertensive rats (mean arterial pressure); assay type: in vivo; details: Rattus norvegicus, 5 min, SHR iv
Method: After a 2 day recovery from surgery, three baseline blood pressure measurements were made at 5 min intervals in conscious SHR. Compounds to be tested or vehicle were then administered intravenously in a dose-dependent manner (0.3-10 mg base/kg) while arterial pressure was recorded continuously on a polygraph. The mean arterial pressure response was measured 5 minutes after the administration of each dose of the test compound and the next dose given in a cumulative dose fashion. The response to each dose of the test compound was calculated as the difference from the mean of the three baseline measurements.

[3] = read-out: Percent Inhibition cGMP-PDE V

Structure (SMILES)	IC50 [1]	inhibition at 0.1 µM [1, 3]	inhibition at 1 µM [1, 3]	further results
CCCOc1ccccc1-c1nc2n(C3CCCC3)[nH]c(C)c-2c(=O)n1 [1 (c), 1-cyclopentyl-3-methyl-6-(2-propoxyphenyl)-pyrazolo[3,4-d]pyrimidin-4-one]	7 nM and 3 nM			change in vivo at 1 mg/kg ([2]; 5 minutes after dose): -5%
C=CCOc1ccccc1-c1nc2c(c(CC)nn2C2CCCC2)c(=O)[nH]1 [9 (b), 1-cyclopentyl-3-ethyl-6-[2-(CH2 =CH--CH2 O)phenyl]pyrazolo[3,4-d]pyrimidin-4-one]	4.9 nM			change in vivo at 10 mg/kg ([2]; 5 minutes after dose): -19%
CCc1[nH]n(C2CCCC2)c2nc(-c3cccc(OCCN4CCCCC4)c3)nc(=O)c1-2 [19 (b), 1-cyclopentyl-3-ethyl-6-[3-[2-(1-piperidinyl)ethoxy]phenyl]pyrazolo[3,4-d]pyrimidin-4-one]	73 nM			ED25 [2]: 12.5 mg/kg; change in vivo at 10 mg/kg ([2]; 5 minutes after dose): -19%
CCc1[nH]n(C2CCCC2)c2nc(-c3cccc(OCCN4CCCC4)c3)nc(=O)c1-2 [22 (b), 1-cyclopentyl-3-ethyl-6-[3-[2-(1-pyrrolidinyl)ethoxy]phenyl]pyrazolo[3,4-d]pyrimidin-4-one]	140 nM			ED25 [2]: 17.9 mg/kg; change in vivo at 10 mg/kg ([2]; 5 minutes after dose): -18%
CCc1[nH]n(C2CCCC2)c2nc(-c3cccc(-n4ccnc4)c3)nc(=O)c1-2 [24 (c), 1-cyclopentyl-3-ethyl-6-[3-(1-imidazolyl)phenyl]pyrazolo-[3,4-d]pyrimidin-4-one]	130 nM			ED25 [2]: 12.7 mg/kg; change in vivo at 3 mg/kg ([2]; 3 mg/kg, 5 minutes after dose): -13%; change in vivo at 10 mg/kg ([2]; 5 minutes after dose): -21%
CCc1[nH]n(C2CCCC2)c2nc(-c3cccc(OCC(=O)N4CCOCC4)c3)nc(=O)c1-2 [40 (d), 1-cyclopentyl-3-ethyl-6-[3-(4-morpholinylcarbonylmethoxy)-phenyl]pyrazolo[3,4-d]pyrimidin-4-one]		47%	74%	
CCc1[nH]n(C2CCCC2)c2nc(-c3cccc(OCCN4CCSCC4)c3)nc(=O)c1-2 [41 (c), 1-cyclopentyl-3-ethyl-6-[3-[2-(4-thiomorpholinyl)ethoxy]phenyl]pyrazolo[3,4-d]pyrimidin-4-one]		46%	56%	
CCc1[nH]n(C2CCCC2)c2nc(-c3cccc(OCc4ccncc4)c3)nc(=O)c1-2 [42 (c), 1-cyclopentyl-3-ethyl-6-[3-[4-pyridinylmethoxy]phenyl]pyrazolo[3,4-d]pyrimidin-4-one]		56%		inhibition at 0.01 µM ([1]; 0.01 μM, read-out: Percent Inhibition cGMP-PDE V): 25%
CCc1[nH]n(C2CCCC2)c2nc(-c3cccc(OC4CCCCN(C)C4)c3)nc(=O)c1-2 (stereo not drawn) [43 (b), 1-cyclopentyl-3-ethyl-6-[3-(1-methyl-3-hexahydroazepinyloxy)phenyl]pyrazolo[3,4-d]pyrimidin-4-one]		41%	75%	
CCOc1cc(-n2ccnc2)ccc1-c1nc2n(C3CCCC3)[nH]c(CC)c-2c(=O)n1 [46 (c), 1-cyclopentyl-3-ethyl-6-[4-(1-imidazolyl)-2-ethoxyphenyl]pyrazolo[3,4-d]pyrimidin-4-one]	18 nM	26%	76%	inhibition at 10 µM [1, 3]: 90%
CCc1[nH]n(C2CCCC2)c2nc(-c3ccccc3)nc(=O)c1-2 [Example 2, 1-cyclopentyl-3-ethyl-6-phenyl-pyrazolo[3,4-d]pyrimidin-4-one]	250 nM			
CCc1[nH]n(C2CCCC2)c2nc(-c3ccccc3C)nc(=O)c1-2 [Example 3, 1-cyclopentyl-3-ethyl-6-(2-methylphenyl)-pyrazolo[3,4-d]pyrimidin-4-one]	200 nM			change in vivo at 1 mg/kg ([2]; 5 minutes after dose): -7%
CCOc1ccccc1-c1nc2n(C3CCCC3)[nH]c(CC)c-2c(=O)n1 [Example 4, 1-cyclopentyl-3-ethyl-6-(2-ethoxyphenyl)-pyrazolo[3,4-d]pyrimidin-4-one]	5.8 nM			change in vivo at 10 mg/kg ([2]; 5 minutes after dose): -13%
CCc1[nH]n(C2CCCC2)c2nc(-c3ccccc3OC)nc(=O)c1-2 [Example 5, 1-cyclopentyl-3-ethyl-6-(2-methoxyphenyl)-pyrazolo[3,4-d]pyrimidin-4-one]	87 nM			change in vivo at 1 mg/kg ([2]; 5 minutes after dose): -8%
CCc1[nH]n(C2CCCC2)c2nc(-c3ccccc3O)nc(=O)c1-2 [Example 7, 1-cyclopentyl-3-ethyl-6-(2-hydroxyphenyl)pyrazolo[3,4-d]pyrimidin-4-one]			20%	inhibition at 10 µM [1, 3]: 51%
CCc1[nH]n(C2CCCC2)c2nc(-c3ccc(OCCCN(C)C)cc3)nc(=O)c1-2 [Example 10, 1-cyclopentyl-3-ethyl-6-[4-[3-(dimethylamino)propoxy]phenyl]pyrazolo[3,4-d]pyrimidin-4-one]			15%	inhibition at 10 µM [1, 3]: 85%
CCc1nn(C2CCCC2)c2nc(-c3ccc(OCC(=O)O)cc3OC)[nH]c(=O)c12 [Example 14, 1-cyclopentyl-3-ethyl-6-[(2-methoxy-4-carboxymethoxy)phenyl]pyrazolo[3,4-d]pyrimidin-4-one]	810 nM			
CCc1[nH]n(C2CCCC2)c2nc(-c3ccccc3C(F)(F)F)nc(=O)c1-2 [Example 15, 1-cyclopentyl-3-ethyl-6-(2-trifluoromethylphenyl)-pyrazolo[3,4-d]pyrimidin-4-one]	500 nM			
CCc1nn(C2CCCC2)c2nc(-c3ccccc3OCC(=O)O)[nH]c(=O)c12 [Example 16, 1-cyclopentyl-3-ethyl-6-[2-(carboxymethoxy)phenyl]pyrazolo[3,4-d]pyrimidin-4-one 1/2 hydrate]			19%	inhibition at 10 µM [1, 3]: 68%
CCc1[nH]n(C2CCCC2)c2nc(-c3ccc([N+](=O)[O-])cc3)nc(=O)c1-2 [Example 28, 1-cyclopentyl-3-ethyl-6-(4-nitrophenyl)pyrazolo [3,4-d]pyrimidin-4-one]			40%	
CCc1[nH]n(C2CCCC2)c2nc(-c3ccc(Cl)cc3O)nc(=O)c1-2 [Example 30, 1-cyclopentyl-3-ethyl-6-(4-chloro-2-hydroxyphenyl)pyrazolo[3,4-d]pyrimidin-4-one]		9%	53%	
CCc1nn(C2CCCC2)c2nc(-c3ccc(N)cc3)[nH]c(=O)c12 [Example 31, 1-cyclopentyl-3-ethyl-6-(4-aminophenyl)pyrazolo[3,4-d]pyrimidin-4-one hydrochloride 1/3 hydrate]		31%	61%	
CCc1nn(C2CCCC2)c2nc(-c3ccc4c(c3)CCO4)[nH]c(=O)c12 [Example 32, 1-cyclopentyl-3-ethyl-6-(2,3-dihydrobenzo[b]furan-5-yl)pyrazolo[3,4-d]pyrimidin-4-one 1/10 hydrate]		23%	47%	
CCc1[nH]n(C2CCCC2)c2nc(-c3ccc(NS(C)(=O)=O)cc3)nc(=O)c1-2 [Example 33, 1-cyclopentyl-3-ethyl-6-[4-(methylsulfonylamino)phenyl]pyrazolo[3,4-d]pyrimidin-4-one]		21%	56%	
C=CCc1cccc(-c2nc3n(C4CCCC4)[nH]c(CC)c-3c(=O)n2)c1O [Example 36, 1-cyclopentyl-3-ethyl-6-[2-hydroxy-3-(2-propenyl)phenyl]pyrazolo[3,4-d]pyrimidin-4-one]		0%	4%	
CCc1[nH]n(C2CCCC2)c2nc(-c3cccc(O)c3)nc(=O)c1-2 [Example 44, 1-cyclopentyl-3-ethyl-6-(3-hydroxyphenyl)pyrazolo[3,4-d]pyrimidin-4-one]		29%	56%	
